According to US12233060B2, “Inhibitors of Ataxia-Telangiectasia Mutated and Rad3-related protein kinase (ATR) for use in methods of treating cancer” (THE INSTITUTE OF CANCER RESEARCH: ROYAL CANCER HOSPITAL, priority 2016, dated 2025):

Assays:
Type in all cases: cell-based, human
[1] = test system: TOV21G (ARID1A mutant) and RMG1 (ARID1A wildtype) cells; test: Five-day dose response in OCCC cell lines TOV21G and RMG1; conditions: 5 days exposure
Experimental: (§1) FIG. 3. In vivo ARID1A/ATR synthetic lethality. A. Schematic of VX-970 therapy experiment in mice bearing established HCT116 ARID1A^+/+ and ARID1A^−/− xenografts. Cells were inoculated subcutaneously into nude mice and tumors allowed to establish for 10 days. Mice were then randomized to treatment regimens of either VX-970 (60 mg/kg, 4× weekly by oral gavage) or vehicle. Mice were then treated for a subsequent 40 days. Tumor volume was monitored twice weekly. B. Relative tumor volume plot from (A) showing efficacy of VX-970 and selectivity for ARID1A^−/− xenografts* p=0.024, ANOVA. C. Schematic of tumor incidence experiment in mice with non-established HCT116 ARID1A^+/+ and ARID1A^−/− xenografts. Mice were inoculated with cells as before, randomized and then treated with VX-970. […] Tumor volume was monitored twice weekly and overall tumour incidence was assessed 40 days later. […] PARP-1, cleaved PARP-1 (85 kDa fragment) and tubulin were detected by western blot. […] Caspase3/7 activity was assessed using Caspase-Glo and total cellular viability was estimated using CellTitre-Glo. Luminescence ratios for Caspase-Glo (i.e. apoptotic cells) and CellTitre-Glo (ie viable cells) was determined for each dose and normalized to DMSO treated samples. *Student's t-test, p<0.05. […]
Short-term survival assays were performed in 384-well plates. […] Colonies were counted manually. […]

[2] = test system: HCT116 ARID1A isogenic (+/+ and −/−) cell lines; test: Clonogenic survival of ARID1A isogenic cells
Experimental: FIG. 2. In vitro ARID1A/ATR synthetic lethality. A. Chemical structure of VX-970. B. Western blot of ARID1A in human ARID1A isogenic HCT116 cells. C. Image of colonies in 6 well-plate clonogenic assay. HCT116 ARID1A isogenic (^+/+ and ^−/−) cell lines were exposed to increasing concentrations of the VE-821 (0, 0.1, 1 uM) and VX-970 (0, 0.01, 0.05 uM) for 14 days. D and E. Dose response clonogenic survival curve of HCT116 ARID1A isogenic (^+/+ and ^−/−) cell lines exposed to increasing concentrations of the VE-821 and VX-970 for 14 days. Error bars represent SD from triplicate experiments, ANOVA p-value of <0.0001. F. Area under curve (AUC) box whisker comparison plot for human tumor cell lines exposed to VX-970 for five days. ARID1A wild type tumor cell lines (n=15) were compared to ARID1A mutant cell lines (n=9). Student's t-test p=0.00594. G. Dose response clonogenic survival curve of mouse Arid1a isogenic ES cell lines. Experiment was performed as per (C). Error bars represent SD from triplicate experiments, ANOVA p value of <0.0001. H. Western blot of Arid1a protein expression in mouse ES Arid1a isogenic cells. I. Z score box whisker comparison plot for 86 human tumor cell lines transfected with ATR siRNA. Cells lines were transfected with siRNA and cell viability was estimated five days later by Cell Titre Glo reagent.
Short-term survival assays were performed in 384-well plates. Exponentially growing cells were plated at a concentration of 500 cells/well. Drug was added 24 h after seeding and cells were continuously exposed to the drug for five days, after which cell viability was estimated using CellTitre-Glo luminescence (Promega). For clonogenic assays, cells were seeded in 6-well plates (500 cells/well) and continuously exposed to drug 24!h after seeding for 14 days. Media containing fresh drug was replaced every 72 hours. Cells were fixed with 10% trichloroacetic acid and stained with sulphorhodamine B (Sigma-Aldrich, Gillingham, UK). Colonies were counted manually. All cell-based assays were performed at least in triplicate.

[3] = test system: HCT116 ARID1A+/+ and ARID1A−/− cells; test: Apoptosis assay (caspase-3/7 activity); conditions: 24 hours exposure; p<0.05 Student's t-test
Experimental: as §1, with “xenografts.” for “xenografts. Mice were inoculated with cells as before, randomized and then treated with VX-970.”
FIG. 5. […] The percentage of cells in G2/M was measured by FACS following PI staining. […] A minimum of 50 anaphases were scored in 3 biological replicate experiments. *p=0.023, Student's t-test. […]

## CNCc1ccc(-c2cc(-c3nc(-c4ccc(S(=O)(=O)C(C)C)cc4)cnc3N)on2)cc1 [VX-970, 5-[4-(Isopropylsulfonyl)phenyl]-3-(3-{4-[(methylamino)methyl]phenyl}-1,2-oxazol-5-yl)-2-pyrazinamine]
[1]
  sensitivity of TOV21G vs RMG1: more sensitive to both VE-821 and VX-970
[2]
  ARID1A−/− selectivity compared with PARP inhibitors or cisplatin: greater than for other proposed ARID1A-targeted agents
[3]
  caspase-3/7 activation, ARID1A−/− vs ARID1A+/+: higher caspase-3/7 activation
